Assay results: ChEMBL document CHEMBL4330089, “Exploring structural properties of potent human carbonic anhydrase inhibitors bearing a 4-(cycloalkylamino-1-carbonyl)benzenesulfonamide moiety” (Eur J Med Chem, 2019)
Calls of active or inactive are those of the source. The rule behind the calls is not given here.

What was measured:
[1] = target: Carbonic anhydrase 9 (Homo sapiens, UniProt Q16790)
Description: Inhibition of human carbonic anhydrase-9 catalytic domain assessed as reduction in CO2 hydration after 15 mins by phenol red dye based stopped flow assay

[2] = test system: Mus musculus; experiment: Anticonvulsant activity in ip dosed mouse assessed as reduction in PTZ-induced seizures pretreated for 30 mins followed by PTZ addition; assay type: functional, organism-based
[3] = Toxicity in mouse assessed as sedation at 20 to 30 mg/kg; assay type: organism-based; settings: in vivo
[4] = Toxicity in mouse in mouse model of PTZ-induced seizures assessed as clonus occurance at 20 to 30 mg/kg, ip pretreated for 30 mins followed by PTZ addition; assay type: organism-based; settings: in vivo
[5] = organism: Mus musculus; experiment: animal or person
Description: Anticonvulsant activity in mouse assessed as reduction in PTZ-induced seizures

SMILES	Ki [1] [nM]	other results
NS(=O)(=O)c1ccc(C(=O)N2CCC(O)(c3ccc(Br)cc3)CC2)cc1	4.7	Activity [2]: Active; Activity [3]: Toxic; Activity [4]: Toxic
NS(=O)(=O)c1ccc(C(=O)N2CCN(C(c3ccccc3)c3ccccc3)CC2)cc1	28.2	Activity [2]: Active; Activity [3]: Toxic; Activity [4]: Toxic
CC1CCCCN1C(=O)c1ccc(S(N)(=O)=O)cc1 (centres undefined)	2.6	
CC1CCCN(C(=O)c2ccc(S(N)(=O)=O)cc2)C1 (centres undefined)	2.4	
CC1CCN(C(=O)c2ccc(S(N)(=O)=O)cc2)CC1	3.4	
NS(=O)(=O)c1ccc(C(=O)N2CCN(Cc3ccc(F)cc3)CC2)cc1	45.1	Activity [2]: Active; Activity [3]: Toxic; Activity [4]: Toxic
NS(=O)(=O)c1ccc(C(=O)N2CCCCCC2)cc1	16.8	
NS(=O)(=O)c1ccc(C(=O)N2CCC(Cc3ccccc3)CC2)cc1	7	
NS(=O)(=O)c1ccc(C(=O)N2CCCCC2)cc1	3.1	
NS(=O)(=O)c1ccc(C(=O)N2CCN(Cc3ccccc3)CC2)cc1	33.1	
CC(=O)C1(c2ccccc2)CCN(C(=O)c2ccc(S(N)(=O)=O)cc2)CC1	3.1	
NS(=O)(=O)c1ccc(C(=O)N2CCN(c3ccccc3)CC2)cc1	4.8	
NS(=O)(=O)c1ccc(C(=O)N2CCC(O)(c3ccc(Cl)cc3)CC2)cc1	24.9	
NS(=O)(=O)c1ccc(C(=O)N2CCC(c3ccccc3)CC2)cc1	3.3	Activity [2]: Active; Activity [3]: Toxic; Activity [4]: Toxic
N#CC1(c2ccccc2)CCN(C(=O)c2ccc(S(N)(=O)=O)cc2)CC1	18.4	
NS(=O)(=O)c1ccc(C(=O)N2CCC(O)(c3ccccc3)CC2)cc1	22.6	
CC1(C)O[C@@H]2[C@@H](CO[C@@]3(COS(N)(=O)=O)OC(C)(C)O[C@@H]23)O1 [TOPIRAMATE]		ED50 [5]: 22 mg/kg
